For test [1], the system named is Saccharomyces cerevisiae growth inhibition, permissive control. Briefly: concentration-response yeast growth inhibition under permissive conditions, counter-assay for yeast lifespan-shortening chemical project (AID 850).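 Further: growth read as optical density after one day of incubation.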
Assay in test [2]: as above
Particulars: Saccharomyces cerevisiae growth inhibition, permissive control, measured here: maximum growth inhibition, stronger effect = higher value.

Structures are written as SMILES. Activity calls are given as the source filed them. How the calls were made is not given here.

As a reminder, the IC50 is the midpoint of a concentration-inhibition curve. What is called inhibition is the relative decrease from the control value, in per cent.

As for `O=[N+]([O-])c1ccc(O)c2ncccc12`, the IC50 in test [1] was 0.483 µM. Besides, the inhibition in test [2] (at 12.5 µM) amounted to 99.4%.
As for `O=C(Oc1csc(=S)n1C(=O)c1ccccc1)c1ccccc1`, the IC50 in test [1] was > 100 µM (inactive). Moreover, the inhibition in test [2] (at 12.5 µM) turned out to be 11.4%.
`CCN1CCN(C(=O)C(NS(=O)(=O)c2ccc3nc(C)sc3c2)C(C)C)CC1` (stereo not drawn): the IC50 in test [1] was > 100 µM (inactive). In addition, the inhibition in test [2] (at 0.098 µM) was 16.9%.
Turning to `O=[N+]([O-])c1ccc(O)c(/C=N/Nc2ccccn2)c1`, the IC50 in test [1] was > 100 µM (inactive). Besides, the inhibition in test [2] (at 0.781 µM) is 16.1%.
In the case of `CCOC(=O)N1CCN(C(=O)Cn2nc(C)c3sc4ccccc4c3c2=O)CC1`, the IC50 in test [1] is > 100 µM (inactive). In test [2] (at 25 µM), the inhibition was found to be 12.1%.
On to `Fc1ccc(N/N=C2/CC(c3ccccc3)Oc3ccccc32)c(F)c1` (stereo not drawn), for which the 50% inhibitory concentration (IC50) in test [1] was 25.9 µM. The inhibition in test [2] (at 50 µM) was 95.9%.
Consider `CC(C)c1ccc2c(c1)C1(NN=C(c3ccccc3)S1)C(=O)N2` (stereo not drawn), for which the IC50 in test [1] is 49.5 µM. Moreover, the inhibition in test [2] (at 50 µM) came to 49.5%.
Regarding `CCCCCCCCCCn1c2c(c(=N)c3c1CCC3)CCC2`, in test [1], the IC50 was 12 µM. In addition, in test [2] (at 50 µM), the inhibition turned out to be 100%.
`Cc1ccc(N/N=C(\C#N)C(N)=S)c(C)c1`: in test [1], the IC50 is > 100 µM (inactive). In test [2] (at 25 µM), the inhibition came to 4.57%.
Take `CN(O)/C=c1/ccc2c(n1)C(=O)C=CC=2`: the IC50 in test [1] is 8.03 µM. For the same compound, in test [2] (at 12.5 µM), the inhibition was found to be 98%.
As to `CC(C)N=c1scc(-c2cccs2)n1/N=C/c1ccc(O)c(O)c1O`, the IC50 in test [1] is > 100 µM (inactive). In test [2] (at 0.195 µM), the inhibition was 2.13%.
Regarding `Cc1ccc(S(=O)(=O)Nc2ccc(SC(F)F)cc2)c(C)c1`, the IC50 in test [1] was > 100 µM (inactive). In test [2] (at 0.781 µM), the inhibition is 21.4%.
On to `O=C(/C(=C/O)N=Nc1ccccc1)c1ccncc1`, for which, in test [1], the IC50 is 13.3 µM. In test [2] (at 50 µM), the inhibition stood at 100%.
Take `Oc1c(CN2CCCCC2)cc(Br)c2cccnc12`: the IC50 in test [1] was 7.22 µM. Besides, the inhibition in test [2] (at 50 µM) stood at 99.8%.
As to `O=C(c1ccc(C(=O)N2CCCc3ccccc32)s1)N1CCCc2ccccc21`, the IC50 in test [1] was 34.1 µM. In test [2] (at 50 µM), the inhibition is 87%.
For `Cc1cc(O)c(/C=N/Nc2ccccc2Cl)c(=O)o1` the same measures were 22.3 µM and 95.1%.
For `CCCCCCN1N=C(C)C(C(=O)c2ccc(Cl)cc2)C1=O` (stereo not drawn) the same measures were 24.5 µM and 75%.
With `Cc1ccc(C(NC(=O)C(C)C)c2cc([N+](=O)[O-])c3cccnc3c2O)cc1` (stereo not drawn), the IC50 in test [1] is 28.8 µM. For the same compound, the inhibition in test [2] (at 50 µM) turned out to be 90.4%.
Regarding `Nc1c(Nc2ccccc2)c2ccccc2oc1=O`, in test [1], the IC50 was 47.1 µM. Besides, in test [2] (at 50 µM), the inhibition amounted to 47.2%.
With `CCSc1ncc(/C=N/Nc2ccc(Cl)cc2)n1C`, in test [1], the IC50 is 6.82 µM. Besides, the inhibition in test [2] (at 50 µM) was 94.7%.
For `CC(=O)NC(c1cccs1)c1cc([N+](=O)[O-])c2cccnc2c1O` (stereo not drawn), the IC50 in test [1] is > 100 µM (inactive). For the same compound, the inhibition in test [2] (at 50 µM) was determined as 17.1%.
Consider `c1ccc2c(c1)oc1c(N3CCOCC3)ncnc12`, for which, in test [1], the IC50 was > 100 µM (inactive). Also, in test [2] (at 25 µM), the inhibition is 19.7%.
`CCCn1c(CNc2ccccc2O)nc2ccccc21`: the IC50 in test [1] was > 100 µM (inactive). In test [2] (at 50 µM), the inhibition is 18.9%.
For `COc1ccccc1NC(=O)Cc1noc(CSc2cccc[n+]2[O-])n1`, in that order: 21.9 µM and 97.7%.
Turning to `CCn1ncc(C2=NOC(C(=O)Nc3c(C)n(C)n(-c4ccccc4)c3=O)C2)c1C` (stereo not drawn), the IC50 in test [1] is > 100 µM (inactive). Also, the inhibition in test [2] (at 0.195 µM) came to 6.76%.
With `CN1CCN(C2=Cc3ccc(Cl)cc3Sc3ccc(F)cc32)CC1`, the IC50 in test [1] is 27.2 µM. The inhibition in test [2] (at 50 µM) came out at 99.8%.
For the compound `Cc1ccc(COc2ccc(Br)cc2/C=N/O)cc1`, the IC50 in test [1] was > 100 µM (inactive). Moreover, the inhibition in test [2] (at 0.098 µM) was -1.78%.
On to `CCOC(=O)c1sc(=S)n(-c2cc(F)ccc2F)c1N`, for which the IC50 in test [1] was > 100 µM (inactive). In addition, in test [2] (at 25 µM), the inhibition was determined as 29.2%.
Turning to `C=CCN1C(C(=O)c2ccccc2)=C(OC(=O)COc2ccccc2)c2ccccc2S1(=O)=O`, in test [1], the IC50 was 43.1 µM. Besides, the inhibition in test [2] (at 50 µM) was 65.8%.
As to `O=C(COc1ccc(Cl)cc1)NC1=NN(c2ccccc2)C(=O)C1`, the IC50 in test [1] is > 100 µM (inactive). Further, the inhibition in test [2] (at 6.25 µM) was determined as 14.6%.
Turning to `NC(=O)c1sc2nc(-c3ccco3)ccc2c1N`, in test [1], the IC50 is > 100 µM (inactive). In test [2] (at 1.563 µM), the inhibition stood at 8.46%.
On to `CC1CCCC2(C1)NC(=S)N(c1ccccc1)N2` (stereo not drawn), for which, in test [1], the IC50 is 20.5 µM. Also, the inhibition in test [2] (at 50 µM) worked out at 78.8%.
On to `CCCCn1c(/N=C/c2c[nH]c3ccccc23)nc2ccccc21`, for which, in test [1], the IC50 is > 100 µM (inactive). Moreover, in test [2] (at 0.781 µM), the inhibition came to 7.75%.
Consider `CCOC(=O)c1c(N)sc(C(O)(C(F)(F)F)C(F)(F)F)c1-c1ccc(Cl)cc1`, for which, in test [1], the IC50 was > 100 µM (inactive). The inhibition in test [2] (at 0.781 µM) worked out at 7.92%.

Source of the values: PubChem BioAssay AID850 (SRMLSC, 2007).
